From ChEMBL document CHEMBL3763132, “Discovery of highly selective CRAF inhibitors, 3-carboxamido-2H-indazole-6-arylamide: In silico FBLD design, synthesis and evaluation” (Bioorg Med Chem Lett, 2016)
Each block holds one compound with its values, some of them ahead of it.

Assays:
[1] = Antiproliferative activity against human WM3629 cells by MTT/CellTiter 96 assay; assay type: functional
[2] = Antiproliferative activity against human A375P cells by MTT assay; assay type: functional
Homo sapiens = species: Homo sapiens; assay: Inhibition of human PKA at 10 uM
[3] = biological target: Dual specificity mitogen-activated protein kinase kinase 1 (Homo sapiens) (UniProt Q02750); assay: Inhibition of human MEK1 at 10 uM
[4] = biological target: Vascular endothelial growth factor receptor 2 (Homo sapiens) (UniProt P35968); assay: Inhibition of human KDR at 10 uM
[5] = biological target: Tyrosine-protein kinase Lyn (Homo sapiens) (UniProt P07948); assay: Inhibition of human LYN at 10 uM
[6] = biological target: Tyrosine-protein kinase Lck (Homo sapiens) (UniProt P06239); assay: Inhibition of human LCK at 10 uM
Sequence of Tyrosine-protein kinase Lck (Homo sapiens) (P06239 2-509 limits assumed): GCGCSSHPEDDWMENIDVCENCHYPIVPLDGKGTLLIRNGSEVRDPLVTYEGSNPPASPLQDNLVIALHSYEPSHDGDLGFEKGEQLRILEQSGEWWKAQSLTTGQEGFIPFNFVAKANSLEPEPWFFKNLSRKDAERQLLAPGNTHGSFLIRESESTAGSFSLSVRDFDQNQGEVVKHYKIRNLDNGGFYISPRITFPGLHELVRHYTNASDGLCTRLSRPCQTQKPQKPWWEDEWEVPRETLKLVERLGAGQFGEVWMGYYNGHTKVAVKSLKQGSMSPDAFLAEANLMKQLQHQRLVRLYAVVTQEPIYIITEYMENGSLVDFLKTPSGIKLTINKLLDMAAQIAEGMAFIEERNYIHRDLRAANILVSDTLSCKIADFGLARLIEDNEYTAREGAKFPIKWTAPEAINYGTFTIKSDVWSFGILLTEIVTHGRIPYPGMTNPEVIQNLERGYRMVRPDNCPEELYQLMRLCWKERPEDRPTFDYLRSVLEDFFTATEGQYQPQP

[7] = biological target: Mast/stem cell growth factor receptor Kit (Homo sapiens) (UniProt P10721); assay: Inhibition of human cKIT at 10 uM
[8] = biological target: T1, Serine/threonine-protein kinase B-raf (Homo sapiens, UniProt P15056); assay: Inhibition of BRAF (unknown origin)
T1 sequence (P15056 whole entry): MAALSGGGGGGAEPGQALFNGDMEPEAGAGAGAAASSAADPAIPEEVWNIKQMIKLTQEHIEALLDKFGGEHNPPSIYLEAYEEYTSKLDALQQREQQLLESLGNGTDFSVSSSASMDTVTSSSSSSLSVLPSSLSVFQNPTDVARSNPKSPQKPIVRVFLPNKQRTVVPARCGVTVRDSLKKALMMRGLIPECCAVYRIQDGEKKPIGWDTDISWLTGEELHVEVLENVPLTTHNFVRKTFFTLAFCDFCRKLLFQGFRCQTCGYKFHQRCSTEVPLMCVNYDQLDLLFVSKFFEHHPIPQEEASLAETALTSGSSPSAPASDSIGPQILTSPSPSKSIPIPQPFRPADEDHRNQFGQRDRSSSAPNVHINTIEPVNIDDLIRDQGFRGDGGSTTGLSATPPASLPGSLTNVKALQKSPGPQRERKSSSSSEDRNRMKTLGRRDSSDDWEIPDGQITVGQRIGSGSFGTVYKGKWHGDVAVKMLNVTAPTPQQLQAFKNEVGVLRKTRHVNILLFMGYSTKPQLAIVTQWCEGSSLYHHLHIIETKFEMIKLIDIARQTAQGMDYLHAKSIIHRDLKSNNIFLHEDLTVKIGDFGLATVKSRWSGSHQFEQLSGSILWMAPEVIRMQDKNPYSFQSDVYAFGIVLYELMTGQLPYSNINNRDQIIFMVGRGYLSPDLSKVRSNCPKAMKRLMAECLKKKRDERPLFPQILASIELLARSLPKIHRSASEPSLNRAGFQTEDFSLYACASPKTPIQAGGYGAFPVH

[9] = biological target: T1, Serine/threonine-protein kinase B-raf; settings: 10 uM
Description: Inhibition of human BRAF at 10 uM

[10] = biological target: Proto-oncogene tyrosine-protein kinase Src (Homo sapiens) (UniProt P12931); assay: Inhibition of human cSRC at 10 uM
[11] = biological target: T2, RAF proto-oncogene serine/threonine-protein kinase (Homo sapiens, UniProt P04049); assay: Inhibition of CRAF (unknown origin)
T2 sequence (P04049 whole entry): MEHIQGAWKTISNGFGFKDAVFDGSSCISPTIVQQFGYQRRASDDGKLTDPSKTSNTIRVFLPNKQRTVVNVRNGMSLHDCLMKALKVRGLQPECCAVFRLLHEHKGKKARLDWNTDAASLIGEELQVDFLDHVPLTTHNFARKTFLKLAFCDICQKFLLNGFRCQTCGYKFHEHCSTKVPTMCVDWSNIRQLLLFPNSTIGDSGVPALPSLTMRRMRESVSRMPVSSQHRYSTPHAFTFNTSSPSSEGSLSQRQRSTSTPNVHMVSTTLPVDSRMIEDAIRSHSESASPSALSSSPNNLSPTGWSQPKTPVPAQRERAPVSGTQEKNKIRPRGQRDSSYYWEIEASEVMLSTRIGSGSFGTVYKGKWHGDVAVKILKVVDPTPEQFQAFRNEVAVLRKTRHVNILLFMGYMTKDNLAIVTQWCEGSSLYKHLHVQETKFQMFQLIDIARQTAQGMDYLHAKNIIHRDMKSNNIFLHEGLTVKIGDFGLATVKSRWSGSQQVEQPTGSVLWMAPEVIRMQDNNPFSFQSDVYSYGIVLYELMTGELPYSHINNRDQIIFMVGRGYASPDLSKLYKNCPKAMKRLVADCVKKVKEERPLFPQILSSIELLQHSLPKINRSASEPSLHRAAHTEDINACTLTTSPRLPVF

[12] = biological target: Proto-oncogene tyrosine-protein kinase ROS (Homo sapiens) (UniProt P08922); assay: Inhibition of human ROS1 at 10 uM
Sequence of Proto-oncogene tyrosine-protein kinase ROS (Homo sapiens) (P08922 whole entry): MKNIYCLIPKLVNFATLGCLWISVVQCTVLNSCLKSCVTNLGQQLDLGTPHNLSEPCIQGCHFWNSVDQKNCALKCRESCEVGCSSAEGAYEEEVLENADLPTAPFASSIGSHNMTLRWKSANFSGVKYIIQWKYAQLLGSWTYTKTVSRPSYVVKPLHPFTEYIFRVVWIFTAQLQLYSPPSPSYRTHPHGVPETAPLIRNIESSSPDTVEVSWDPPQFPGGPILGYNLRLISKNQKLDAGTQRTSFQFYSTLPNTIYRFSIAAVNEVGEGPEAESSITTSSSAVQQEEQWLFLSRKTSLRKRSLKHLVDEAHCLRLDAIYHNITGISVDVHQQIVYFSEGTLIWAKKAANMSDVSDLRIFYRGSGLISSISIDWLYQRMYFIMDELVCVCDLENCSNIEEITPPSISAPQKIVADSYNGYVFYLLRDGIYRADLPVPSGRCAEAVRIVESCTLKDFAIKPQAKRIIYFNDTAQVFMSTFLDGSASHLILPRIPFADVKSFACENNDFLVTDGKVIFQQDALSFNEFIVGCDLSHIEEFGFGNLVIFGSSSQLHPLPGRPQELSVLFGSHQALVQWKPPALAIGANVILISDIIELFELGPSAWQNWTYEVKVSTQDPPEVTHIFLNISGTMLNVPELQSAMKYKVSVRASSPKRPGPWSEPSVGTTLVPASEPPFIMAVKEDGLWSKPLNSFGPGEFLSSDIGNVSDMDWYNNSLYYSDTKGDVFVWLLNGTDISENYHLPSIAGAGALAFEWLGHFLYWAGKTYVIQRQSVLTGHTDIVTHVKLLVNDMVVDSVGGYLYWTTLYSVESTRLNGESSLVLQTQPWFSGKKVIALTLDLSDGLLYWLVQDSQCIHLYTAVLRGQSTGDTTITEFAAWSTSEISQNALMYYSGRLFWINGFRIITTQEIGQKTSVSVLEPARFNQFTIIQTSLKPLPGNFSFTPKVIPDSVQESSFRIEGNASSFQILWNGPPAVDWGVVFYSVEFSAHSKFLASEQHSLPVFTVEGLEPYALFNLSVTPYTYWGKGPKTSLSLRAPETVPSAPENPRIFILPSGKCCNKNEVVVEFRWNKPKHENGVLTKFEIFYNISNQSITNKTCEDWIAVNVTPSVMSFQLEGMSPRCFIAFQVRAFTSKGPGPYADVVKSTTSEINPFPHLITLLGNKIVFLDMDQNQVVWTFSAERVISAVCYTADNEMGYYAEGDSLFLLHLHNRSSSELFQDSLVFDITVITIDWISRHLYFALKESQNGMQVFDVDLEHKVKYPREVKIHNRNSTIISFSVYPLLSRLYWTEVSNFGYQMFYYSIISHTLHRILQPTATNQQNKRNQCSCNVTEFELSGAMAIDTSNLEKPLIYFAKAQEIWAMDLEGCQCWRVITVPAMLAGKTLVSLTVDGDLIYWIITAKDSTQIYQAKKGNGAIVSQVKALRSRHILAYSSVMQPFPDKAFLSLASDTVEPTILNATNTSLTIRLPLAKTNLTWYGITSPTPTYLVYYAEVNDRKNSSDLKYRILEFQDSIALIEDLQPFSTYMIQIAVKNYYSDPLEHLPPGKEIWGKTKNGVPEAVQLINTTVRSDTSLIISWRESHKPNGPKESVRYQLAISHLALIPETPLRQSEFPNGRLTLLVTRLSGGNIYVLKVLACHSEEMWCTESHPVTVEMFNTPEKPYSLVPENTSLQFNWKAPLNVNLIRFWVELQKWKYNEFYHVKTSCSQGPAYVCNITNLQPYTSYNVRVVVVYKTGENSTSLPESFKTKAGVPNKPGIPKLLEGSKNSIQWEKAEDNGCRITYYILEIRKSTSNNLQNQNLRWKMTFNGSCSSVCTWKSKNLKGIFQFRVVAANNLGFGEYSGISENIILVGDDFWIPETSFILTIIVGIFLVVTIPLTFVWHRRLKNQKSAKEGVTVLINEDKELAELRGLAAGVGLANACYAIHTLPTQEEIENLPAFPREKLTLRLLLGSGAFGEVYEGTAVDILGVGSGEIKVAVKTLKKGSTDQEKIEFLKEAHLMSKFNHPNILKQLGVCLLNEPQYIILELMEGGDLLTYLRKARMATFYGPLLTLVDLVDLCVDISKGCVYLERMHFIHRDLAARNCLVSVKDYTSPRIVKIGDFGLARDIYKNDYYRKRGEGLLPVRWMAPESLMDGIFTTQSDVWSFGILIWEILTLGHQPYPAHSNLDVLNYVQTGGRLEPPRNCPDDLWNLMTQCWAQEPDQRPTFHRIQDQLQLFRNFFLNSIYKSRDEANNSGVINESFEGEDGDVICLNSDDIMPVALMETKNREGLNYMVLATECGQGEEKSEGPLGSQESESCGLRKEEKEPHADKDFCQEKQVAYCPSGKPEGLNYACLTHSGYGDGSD

[13] = biological target: Hepatocyte growth factor receptor (Homo sapiens) (UniProt P08581); assay: Inhibition of human cMET at 10 uM
[14] = biological target: Glycogen synthase kinase-3 beta (Homo sapiens) (UniProt P49841); assay: Inhibition of human GSK3beta at 10 uM
[15] = biological target: Serine/threonine-protein kinase PLK1 (Homo sapiens) (UniProt P53350); assay: Inhibition of human PLK1 at 10 uM
[16] = biological target: Fibroblast growth factor receptor 2 (Homo sapiens) (UniProt P21802); assay: Inhibition of human FGFR2 at 10 uM
Sequence of Fibroblast growth factor receptor 2 (Homo sapiens) (P21802 22-821 limits assumed): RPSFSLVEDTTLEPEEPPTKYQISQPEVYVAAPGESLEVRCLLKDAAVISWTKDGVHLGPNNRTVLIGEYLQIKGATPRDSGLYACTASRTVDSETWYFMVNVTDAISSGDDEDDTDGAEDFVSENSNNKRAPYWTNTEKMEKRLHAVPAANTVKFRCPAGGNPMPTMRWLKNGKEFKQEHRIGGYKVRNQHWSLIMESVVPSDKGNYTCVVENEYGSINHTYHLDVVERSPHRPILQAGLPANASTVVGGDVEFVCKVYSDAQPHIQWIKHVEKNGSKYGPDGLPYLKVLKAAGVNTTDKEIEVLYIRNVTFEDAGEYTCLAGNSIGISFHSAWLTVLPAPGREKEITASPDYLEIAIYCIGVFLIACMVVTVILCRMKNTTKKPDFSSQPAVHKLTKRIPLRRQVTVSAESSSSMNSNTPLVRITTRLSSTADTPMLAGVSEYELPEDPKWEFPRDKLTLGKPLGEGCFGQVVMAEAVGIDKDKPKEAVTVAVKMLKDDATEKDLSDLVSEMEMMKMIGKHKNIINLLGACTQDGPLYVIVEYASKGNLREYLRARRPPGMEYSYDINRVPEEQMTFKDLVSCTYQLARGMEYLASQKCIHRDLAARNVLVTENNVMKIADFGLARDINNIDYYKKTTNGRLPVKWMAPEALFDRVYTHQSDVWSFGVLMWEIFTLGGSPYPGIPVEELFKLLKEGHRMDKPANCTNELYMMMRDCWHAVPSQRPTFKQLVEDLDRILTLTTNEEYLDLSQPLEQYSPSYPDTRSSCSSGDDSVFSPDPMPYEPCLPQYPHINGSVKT

[17] = test system: Serine/threonine-protein kinase B-raf (Homo sapiens), P15056 [V600E]; settings: 10 uM
Sequence of Serine/threonine-protein kinase B-raf (Homo sapiens), P15056 [V600E] (P15056 whole entry V600E): as the sequence (P15056 whole entry) above, with V600E counted along it
Description: Inhibition of human BRAF V599E mutant at 10 uM

[18] = biological target: Cyclin-dependent kinase 2/cyclin E1 (Homo sapiens) (UniProt P24864+P24941); assay: Inhibition of human CDK2/cyclin E at 10 uM; assay type: protein-complex assay
[19] = biological target: Macrophage colony-stimulating factor 1 receptor (Homo sapiens) (UniProt P07333); assay: Inhibition of human FMS at 10 uM
[20] = biological target: Fibroblast growth factor receptor 3 (Homo sapiens) (UniProt P22607); assay: Inhibition of human FGFR3 at 10 uM
[21] = biological target: Mitogen-activated protein kinase 10 (Homo sapiens) (UniProt P53779); assay: Inhibition of human JNK3 at 10 uM
[22] = biological target: Epidermal growth factor receptor (Homo sapiens) (UniProt P00533); assay: Inhibition of human EGFR at 10 uM
[23] = biological target: Focal adhesion kinase 1 (Homo sapiens) (UniProt Q05397); assay: Inhibition of human FAK at 10 uM
[24] = biological target: Tyrosine-protein kinase JAK3 (Homo sapiens) (UniProt P52333); assay: Inhibition of human JAK3 at 10 uM
[25] = biological target: T2, RAF proto-oncogene serine/threonine-protein kinase; settings: 10 uM
Description: Inhibition of human RAF1 at 10 uM

[26] = biological target: Insulin-like growth factor 1 receptor (Homo sapiens) (UniProt P08069); assay: Inhibition of human IGF1R at 10 uM
[27] = biological target: Mitogen-activated protein kinase 3 (Homo sapiens) (UniProt P27361); assay: Inhibition of human ERK1 at 10 uM
[28] = biological target: Serine/threonine-protein kinase mTOR (Homo sapiens) (UniProt P42345); assay: Inhibition of human mTOR at 10 uM
[29] = biological target: Macrophage-stimulating protein receptor (Homo sapiens) (UniProt Q04912); assay: Inhibition of human RON at 10 uM
[30] = biological target: Cyclin-dependent kinase 1/cyclin B1 (Homo sapiens) (UniProt P06493+P14635); assay: Inhibition of human CDK1/cyclin B at 10 uM; assay type: protein-complex assay
[31] = biological target: Serine/threonine-protein kinase B-raf (Homo sapiens, UniProt P15056, V600E); assay: Inhibition of BRAF V599E mutant (unknown origin)
[32] = biological target: Tyrosine-protein kinase ABL1 (Homo sapiens) (UniProt P00519); assay: Inhibition of human ABL1 at 10 uM
[33] = biological target: Tyrosine-protein kinase SYK (Homo sapiens) (UniProt P43405); assay: Inhibition of human SYK at 10 uM
[34] = biological target: Mitogen-activated protein kinase 14 (Homo sapiens) (UniProt Q16539); assay: Inhibition of human MAPK14 at 10 uM
[35] = biological target: ALK tyrosine kinase receptor (Homo sapiens) (UniProt Q9UM73); assay: Inhibition of human ALK at 10 uM
[36] = Selectivity ratio of GI50 for human A375P cells to GI50 for human WM3629 cells; assay type: functional
[37] = biological target: Aurora kinase A (Homo sapiens) (UniProt O14965); assay: Inhibition of human Aurora A at 10 uM
[38] = biological target: RAC-alpha serine/threonine-protein kinase (Homo sapiens) (UniProt P31749); assay: Inhibition of human AKT1 at 10 uM
[39] = biological target: Receptor-type tyrosine-protein kinase FLT3 (Homo sapiens) (UniProt P36888); assay: Inhibition of human FLT3 at 10 uM

SMILES: C[C@H](NC(=O)c1[nH]nc2cc(NC(=O)c3cccc(C(F)(F)F)c3)ccc12)C(N)=O
GI50 [1]: > 30 µM
GI50 [2]: > 30 µM

SMILES: CNC(=O)c1cc(Oc2ccc(NC(=O)Nc3ccc(Cl)c(C(F)(F)F)c3)cc2)ccn1 [SORAFENIB]
GI50 [1]: 0.78 µM
GI50 [2]: 2.58 µM

SMILES: C[C@H](NC(=O)c1[nH]nc2cc(NC(=O)C(c3ccccc3)c3ccccc3)ccc12)C(N)=O
GI50 [1]: > 30 µM
GI50 [2]: > 30 µM

SMILES: C[C@H](NC(=O)c1[nH]nc2cc(NCc3cccc(NC(=O)c4cnccn4)c3)ccc12)C(N)=O
GI50 [1]: 7.86 µM
GI50 [2]: 19.2 µM

SMILES: C[C@H](NC(=O)c1[nH]nc2cc(NC(=O)c3ccc(Cl)c(C(F)(F)F)c3)ccc12)C(N)=O
GI50 [1]: 9.13 µM
GI50 [2]: 10.5 µM

SMILES: C[C@H](NC(=O)c1[nH]nc2cc(NC(=O)c3ccccc3)ccc12)C(N)=O
GI50 [1]: > 30 µM
GI50 [2]: > 30 µM

SMILES: C[C@H](NC(=O)c1[nH]nc2cc(NCc3cccc(NC(=O)c4ccc(Cl)c(C(F)(F)F)c4)c3)ccc12)C(N)=O
GI50 [1]: 4.54 µM
GI50 [2]: 7.19 µM

SMILES: C[C@H](NC(=O)c1[nH]nc2cc(NC(=O)c3cc(N4CCOCC4)cc(C(F)(F)F)c3)ccc12)C(N)=O
GI50 [1]: > 30 µM
GI50 [2]: > 30 µM

SMILES: C[C@H](NC(=O)c1[nH]nc2cc(NC(=O)Nc3ccc(C(F)(F)F)c(N4CCOCC4)c3)ccc12)C(N)=O
GI50 [1]: 3.51 µM
GI50 [2]: 10.1 µM

inhibition (Homo sapiens): 0%
inhibition [3]: 0%
inhibition [4]: 0%
inhibition [5]: 5.4%
inhibition [6]: 7.62%
inhibition [7]: 22.2%
IC50 [8]: 9.45 µM
inhibition [9]: 21.1%
inhibition [10]: 0%
IC50 [11]: 38.6 µM
inhibition [12]: 1.49%
inhibition [13]: 9.84%
inhibition [14]: 12.3%
inhibition [15]: 9.04%
inhibition [16]: 9.75%
inhibition [17]: 19.5%
inhibition [18]: 3.1%
inhibition [19]: 10.6%
inhibition [20]: 14.9%
inhibition [21]: 0%
inhibition [22]: 0%
inhibition [23]: 8.88%
inhibition [24]: 0%
inhibition [25]: 99.4%
inhibition [26]: 0%
inhibition [27]: 4.2%
inhibition [28]: 0%
inhibition [29]: 0.7%
inhibition [30]: 8.36%
IC50 [31]: 7.82 µM
inhibition [32]: 2.44%
inhibition [33]: 2.89%
inhibition [34]: 11.4%
inhibition [35]: 0%
inhibition [37]: 4.99%
inhibition [38]: 7.08%
inhibition [39]: 1.16%
SMILES: Cc1cncn1-c1cc(C(=O)Nc2cccc(CNc3ccc4c(C(=O)N[C@@H](C)C(N)=O)[nH]nc4c3)c2)cc(C(F)(F)F)c1
GI50 [1]: 0.65 µM
RatioGI50 [36]: 25
GI50 [2]: 15.9 µM

SMILES: C[C@H](NC(=O)c1[nH]nc2cc(NCc3ccc(F)cc3)ccc12)C(N)=O
GI50 [1]: 9.05 µM
GI50 [2]: 10.1 µM

SMILES: C[C@H](NC(=O)c1[nH]nc2cc(NC(=O)c3ccc4ncccc4c3)ccc12)C(N)=O
GI50 [1]: > 30 µM
GI50 [2]: > 30 µM

SMILES: C[C@H](NC(=O)c1[nH]nc2cc(NC(=O)c3ccc(C(F)(F)F)c(N4CCOCC4)c3)ccc12)C(N)=O
GI50 [1]: 7.37 µM
GI50 [2]: 28.3 µM

SMILES: COc1ccc(-n2ncc(C(=O)Nc3ccc4c(C(=O)N[C@@H](C)C(N)=O)[nH]nc4c3)c2C(F)(F)F)cc1
GI50 [1]: 3.28 µM
GI50 [2]: 24.6 µM

SMILES: C[C@H](NC(=O)c1[nH]nc2cc(NCc3cccc(NC(=O)c4cccc(C(C)(C)C#N)c4)c3)ccc12)C(N)=O
GI50 [1]: 7.37 µM
GI50 [2]: 28.3 µM

SMILES: Cc1cncn1-c1cc(C(=O)Nc2ccc3c(C(=O)N[C@@H](C)C(N)=O)[nH]nc3c2)cc(C(F)(F)F)c1
GI50 [1]: 12.9 µM
GI50 [2]: 7.19 µM

SMILES: C[C@H](NC(=O)c1[nH]nc2cc(NC(=O)c3cc4ccccc4s3)ccc12)C(N)=O
GI50 [1]: > 30 µM
GI50 [2]: 28.2 µM

SMILES: C[C@H](NC(=O)c1[nH]nc2cc(NCc3cccc(NC(=O)c4cc(N5CCOCC5)cc(C(F)(F)F)c4)c3)ccc12)C(N)=O
GI50 [1]: 2.25 µM
GI50 [2]: 25.6 µM

SMILES: C[C@H](NC(=O)c1[nH]nc2cc(NC(=O)c3cccc(C(C)(C)C#N)c3)ccc12)C(N)=O
GI50 [1]: > 30 µM
GI50 [2]: > 30 µM

SMILES: C[C@H](NC(=O)c1[nH]nc2cc(NC(=O)Nc3ccc(N4CCOCC4)cc3)ccc12)C(N)=O
GI50 [1]: 9.29 µM
GI50 [2]: 12.3 µM

SMILES: C[C@H](NC(=O)c1[nH]nc2cc(NC(=O)Nc3cccc(C(F)(F)F)c3)ccc12)C(N)=O
GI50 [1]: 6.43 µM
GI50 [2]: 8.41 µM

SMILES: C[C@H](NC(=O)c1[nH]nc2cc(NC(=O)Nc3ccc(Cl)c(C(F)(F)F)c3)ccc12)C(N)=O
GI50 [1]: 6.59 µM
GI50 [2]: 8.58 µM

SMILES: COc1cccc(CNc2ccc3c(C(=O)N[C@@H](C)C(N)=O)[nH]nc3c2)c1
GI50 [1]: 7.19 µM
GI50 [2]: 17.8 µM

SMILES: COc1ccc(-c2ccc(C(=O)Nc3ccc4c(C(=O)N[C@@H](C)C(N)=O)[nH]nc4c3)o2)cc1
GI50 [1]: 7.86 µM
GI50 [2]: 19.2 µM
